US6989389B2, “Aryl ether substituted imidazoquinolines” (3M Innovative Properties Co., priority 2000, dated 2006)
Read-outs that look alike come from different tables or passages of the source.

Tests used:
[1] = test system: Peripheral blood mononuclear cells (PBMC); test: Cytokine Induction in Human Cells (in vitro human blood cell system, IFN and TNF secreted into culture media); assay type: cell-based; design: key to Lowest Effective Concentration (μM) Tumor Necrosis Factor / Lowest Effective Concentration (μM) Interferon: *: no induction was seen at any of the tested concentrations; conditions: 18 to 24 hours, tested 30-0.014 μM; for minimal effective concentration: Homo sapiens, PBMC
Outline: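 Human donor PBMC (2×10^6 cells/mL, RPMI complete) incubated 18–24 h at 37 °C, 5% CO2 with compound, 3-fold dilutions 30–0.014 μM, ≤1% DMSO. IFN-α measured by ELISA, TNF-α by ELISA or IGEN immunoassay in supernatants (pg/mL). Value is lowest concentration inducing each cytokine.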

[2] = lowest concentration found to induce interferon (α), ELISA, read-out: Lowest Effective Concentration (μM) Interferon
[3] = lowest concentration found to induce tumor necrosis factor (α), ELISA or IGEN assay, read-out: Lowest Effective Concentration (μM) Tumor Necrosis Factor
[4] = lowest concentration found to induce interferon (α), ELISA
[5] = lowest concentration found to induce tumor necrosis factor (α), ELISA or IGEN assay

SMILES	melting point [°C]	minimal effective concentration [1, 2] [µM]	minimal effective concentration [1, 3] [µM]	Lowest Effective Concentration (μM) Interferon [1, 4]	Lowest Effective Concentration (μM) Tumor Necrosis Factor [1, 5]
CCCCc1nc2c(N)nc3ccccc3c2n1CCOCC#Cc1ccccc1 [Example 123, 2-Butyl-1-{2-[(3-phenylprop-2-ynyl)oxy]ethyl}-1H-imidazo[4,5-c]quinolin-4-amine]	133 to 140	0.12	10	–	–
CCCCCCCCc1nc2c(N)nc3ccccc3c2n1CCOCC#Cc1ccccc1 [Example 116, 2-Octyl-1-{2-[(3-phenylprop-2-ynyl)oxy]ethyl}-1H-imidazo[4,5-c]quinolin-4-amine]	138 to 138.7	–	–	*	*
CCCCCCCCc1nc2c(N)nc3ccccc3c2n1CCOCCCc1ccccc1 [Example 117, 2-Octyl-1-[2-(3-phenylpropoxy)ethyl]-1H-imidazo[4,5-c]quinolin-4-amine]	103.8 to 104.5	–	–	*	*
CC[C@H](COCC#Cc1ccccc1)n1cnc2c(N)nc3ccccc3c21 [Example 108, 1-((1R)-1-{[(3-Phenylprop-2-ynyl)oxy]methyl}propyl)-1H-imidazo[4,5-c]quinolin-4-amine]	63 to 67	0.00017	0.04	–	–
Nc1nc2ccccc2c2c1ncn2COCc1ccccc1 [Example 113, 1-[(Benzyloxy)methyl]-1H-imidazo[4,5-c]quinolin-4-amine]	168 to 172	1.11	–	–	*
CCOCc1nc2c(N)nc3ccccc3c2n1CCOCC#Cc1ccccc1 [Example 122, 2-(Ethoxymethyl)-1-{2-[(3-phenylprop-2-ynyl)oxy]ethyl}-1H-imidazo[4,5-c]quinolin-4-amine]	110.8 to 111.7	0.01	0.12	–	–
Cc1nc2c(N)nc3ccccc3c2n1CCOCCCc1ccccc1 [Example 119, 2-Methyl-1-[2-(3-phenylpropoxy)ethyl]-1H-imidazo[4,5-c]quinolin-4-amine]	129.7 to 130.7	0.01	0.12	–	–
Nc1nc2ccccc2c2c1ncn2CCOCC#Cc1ccc(Oc2ccccc2)cc1 [Example 9, 1-(2-{[3-(4-Phenoxyphenyl)-2-propynyl]oxy}ethyl)-1H-imidazo[4,5-c]quinolin-4-amine]	146 to 148	–	–	*	*

The next lines start with results.

melting point [°C]	SMILES	minimal effective concentration [1, 2] [µM]	minimal effective concentration [1, 3] [µM]	Lowest Effective Concentration (μM) Interferon [1, 4]	Lowest Effective Concentration (μM) Tumor Necrosis Factor [1, 5]
109.2 to 110	Cc1nc2c(N)nc3ccccc3c2n1CCCCOCC#Cc1ccccc1 [Example 149, 2-Methyl-1-{4-[(3-phenylprop-2-ynyl)oxy]butyl}-1H-imidazo[4,5-c]quinolin-4-amine]	0.041	0.37	–	–
171 to 174	COCCc1nc2c(N)nc3ccccc3c2n1CCOc1ccccc1 [Example 129, 2-(2-Methoxyethyl)-1-(2-phenoxyethyl)-1H-imidazo[4,5-c]quinolin-4-amine]	0.01	0.04	–	–
165	Nc1nc2ccccc2c2c1nc(CCC1CCCC1)n2CCOc1ccccc1 [Example 138, 2-(2-Cyclopentylethyl)-1-(2-phenoxyethyl)-1H-imidazo[4,5-c]quinolin-4-amine]	1.11	–	–	*
235.9 to 236.3	Nc1nc2ccccc2c2c1nc(C1CCOC1)n2CCOc1ccccc1 (stereo not drawn) [Example 139, 1-(2-Phenoxyethyl)-2-tetrahydrofuran-3-yl-1H-imidazo[4,5-c]quinolin-4-amine]	–	–	*	*
